{
  "source": "patent US4687780A",
  "about": "“Anti-tumor compounds of platinum” (Johnson Matthey PLC, priority 1985, dated 1987)",
  "key": {"[1]": {"settings": "reported by Harrap; cited from earlier work"}, "L1210 leukaemia": {"test_system": "L1210 leukaemia", "test": "anti-tumor activity against L1210 leukaemia in CDF1 male mice, i.p. single dose Day 1", "format": "in vivo", "settings": "single dose Day 1", "description": "(§1) Compounds according to the invention were screened for anti-tumor activity against L1210 leukaemia and B16 melanoma in mice. The compounds were administered intraperitoneally as solutions or suspensions in water and \"Tween\" 80 as carrier to CDF1 male mice (L1210) and BDF1 female mice (B16). […] For each dose level, results are quoted in terms of median survival time (MST); the comparative effect (i.e. MST/MST control×100); average weight change (AWC) by Day 5 (L1210) or Day 6 (B16); and the number of mice alive (MA) at Day 5 (L1210) or Day 10 (B16).\n(§2) Results were as follows for the compounds as prepared in Examples 3 and 4.\n1. L1210 (1×10^6 cells): treatment consisted of single dose on Day 1."}, "B16 melanoma": {"test_system": "B16 melanoma", "test": "anti-tumor activity against B16 melanoma in BDF1 female mice, i.p. 9 daily doses", "format": "in vivo", "settings": "9 daily doses from Day 1", "description": "as §1, §2\n2. B16 (0.5 ml 10% BREI): treatment consisted of 9 daily doses beginning at Day 1."}, "[2]": {"test": "pharmacokinetic tests: Pt in blood and cumulative percentage dose in urine, cage wash and faeces after oral administration", "format": "in vivo, female Balb C^- mice", "settings": "oral, JM-8 at 50 mg/kg", "description": "(§3) Additionally, the same compounds were tested for activity against ADJ/PC6A plasmacytoma grown subcutaneously in female Balb C^- mice following oral administration as a suspension in arachis oil. Dosage levels were at 100μ mole/kg of body weight for pharmacokinetic tests to establish the extent of absorption into the systemic circulation.\n(§4) Results are presented in terms of concentration (μg/ml) of Pt in the blood and cumulative percentage dose in urine, cage wash and faeces, all after specified time intervals. Results for anti-tumor effect are expressed as LD50 (mg/kg), ED90 (mg/kg), and TI (LD50 /ED90). The figures for LD50 (the dose level causing 50% deaths) and ED90 (the dose level causing a 90% reduction in tumor size) are determined by administering dosage levels ranging from lethal to non-tumor inhibitory. The therapeutic index (TI) is an indication of the selectivity of the compound as an anti-tumor agent."}, "ADJ/PC6A plasmacytoma": {"test_system": "ADJ/PC6A plasmacytoma", "test": "activity against ADJ/PC6A plasmacytoma grown subcutaneously in mice, oral administration", "format": "in vivo, female Balb C^- mice", "description": "as §3, §4"}, "[3]": {"test": "LD50 (dose level causing 50% deaths), oral administration", "format": "in vivo, female Balb C^- mice", "settings": "suspension in arachis oil", "description": "as §3, §4"}, "malignant tumor": {"test_system": "malignant tumor", "settings": "Phase I, reported by Harrap; cited from earlier work"}},
  "data": [
    {"smiles": "N.N.O=C([O-])C(O)C(=O)[O-].[Pt+2]", "note": "[JM-5, diammine(2-hydroxymalonato)platinum(II)]", "values": [
      {"measurement": "screening results", "setting": "[1]", "value": "only moderately promising on screening results"}
    ]},
    {"smiles": "CCC(C(=O)[O-])C(=O)[O-].N.N.[Pt+2]", "note": "[JM-10, diammine(2-ethylmalonato)-platinum(II)]", "values": [
      {"measurement": "screening results", "setting": "[1]", "value": "only moderately promising on screening results"}
    ]},
    {"smiles": "[NH2][Pt]1([NH2])[O]C(=O)C2(CCC2)C(=O)[O]1", "note": "[JM-8, reference compound]", "values": [
      {"measurement": "% T/C (MST/MST control×100)", "setting": "L1210 leukaemia; 4 mg/kg", "value": 100, "unit": "%"},
      {"measurement": "% T/C (MST/MST control×100)", "setting": "L1210 leukaemia; 8 mg/kg", "value": 121, "unit": "%"},
      {"measurement": "% T/C (MST/MST control×100)", "setting": "L1210 leukaemia; 16 mg/kg", "value": 143, "unit": "%"},
      {"measurement": "% T/C (MST/MST control×100)", "setting": "L1210 leukaemia; 32 mg/kg", "value": 171, "unit": "%"},
      {"measurement": "% T/C (MST/MST control×100)", "setting": "L1210 leukaemia; 64 mg/kg", "value": 150, "unit": "%"},
      {"measurement": "% T/C (MST/MST control×100)", "setting": "L1210 leukaemia; 128 mg/kg", "value": 86, "unit": "%"},
      {"measurement": "% T/C (MST/MST control×100)", "setting": "B16 melanoma; 2 mg/kg", "value": 112, "unit": "%"},
      {"measurement": "% T/C (MST/MST control×100)", "setting": "B16 melanoma; 4 mg/kg", "value": 115, "unit": "%"},
      {"measurement": "% T/C (MST/MST control×100)", "setting": "B16 melanoma; 8 mg/kg", "value": 150, "unit": "%"},
      {"measurement": "% T/C (MST/MST control×100)", "setting": "B16 melanoma; 16 mg/kg", "value": 176, "unit": "%"},
      {"measurement": "% T/C (MST/MST control×100)", "setting": "B16 melanoma; 32 mg/kg", "value": 176, "unit": "%"},
      {"measurement": "Blood conc. of Pt", "setting": "[2]; 1 hr", "value": "2.4 μg/ml of whole blood"},
      {"measurement": "Blood conc. of Pt", "setting": "[2]; 2 hrs", "value": "1.7 μg/ml of whole blood"},
      {"measurement": "Blood conc. of Pt", "setting": "[2]; 4 hrs", "value": "0.72 μg/ml of whole blood"},
      {"measurement": "Blood conc. of Pt", "setting": "[2]; 7 hrs", "value": "0.63 μg/ml of whole blood"},
      {"measurement": "Blood conc. of Pt", "setting": "[2]; 24 hrs", "value": "0.25 μg/ml of whole blood"},
      {"measurement": "Urine dose (cumulative %)", "setting": "[2]; 24 hrs", "value": 10.3, "unit": "%"},
      {"measurement": "Blood conc. of Pt", "setting": "[2]; 48 hrs", "value": "0.25 μg/ml of whole blood"},
      {"measurement": "Urine dose (cumulative %)", "setting": "[2]; 48 hrs", "value": 10.8, "unit": "%"},
      {"measurement": "therapeutic index TI (LD50/ED90)", "setting": "ADJ/PC6A plasmacytoma", "value": 2.4},
      {"measurement": "ED90 (dose level causing a 90% reduction in tumor size)", "setting": "ADJ/PC6A plasmacytoma; suspension in arachis oil", "value": 99, "unit": "mg/kg"},
      {"measurement": "LD50 (dose level causing 50% deaths)", "setting": "[3]", "value": 235, "unit": "mg/kg"},
      {"measurement": "Phase I clinical trial outcome", "setting": "malignant tumor", "value": "reasonably promising on a Phase I clinical trial"},
      {"measurement": "side-effects in Phase I clinical trial", "setting": "malignant tumor", "value": "myelosuppression and to a lesser extent vomiting remained troublesome"}
    ]}
  ]
}
